In ChEMBL document CHEMBL1147134, “Indium-labeled macrocyclic conjugates of naltrindole: high-affinity radioligands for in vivo studies of peripheral delta opioid receptors” (J Med Chem, 2007):

Columns and labels:
[1] = target: Mu-type opioid receptor (Cavia porcellus, UniProt P97266); assay: Displacement of [3H]DAMGO from mu opioid receptor in guinea pig brain membranes; format: cell membranes, Membrane
[2] = target: Kappa-type opioid receptor (Cavia porcellus, UniProt P41144); assay: Displacement of [3H]U-69593 from kappa opioid receptor in guinea pig brain membranes; format: cell membranes, Membrane
[3] = Lipophilicity, log D at pH7.4; format: physicochemical; settings: buffer, pH 7.4
[4] = target: Delta-type opioid receptor (Mus musculus, UniProt P32300); assay: Displacement of [3H]NTI from delta opioid receptor in CD1 mouse brain membranes; format: cell membranes, Membrane
[5] = Selectivity for mouse brain delta opioid receptor over guinea pig brain mu opioid receptor
[6] = Selectivity for mouse brain delta opioid receptor over guinea pig brain kappa opioid receptor

Kappa-type opioid receptor, sequence (P41144 whole entry): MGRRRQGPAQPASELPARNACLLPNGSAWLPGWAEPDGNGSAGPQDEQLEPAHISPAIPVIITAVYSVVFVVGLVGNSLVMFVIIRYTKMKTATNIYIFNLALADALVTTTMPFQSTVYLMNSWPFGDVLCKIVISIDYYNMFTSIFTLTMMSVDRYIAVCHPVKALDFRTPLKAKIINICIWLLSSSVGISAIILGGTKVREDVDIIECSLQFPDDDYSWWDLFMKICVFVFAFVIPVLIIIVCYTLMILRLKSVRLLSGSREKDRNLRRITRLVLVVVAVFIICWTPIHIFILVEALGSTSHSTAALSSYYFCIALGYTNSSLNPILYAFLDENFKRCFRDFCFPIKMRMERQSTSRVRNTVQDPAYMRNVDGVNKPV
Mu-type opioid receptor, sequence (P97266 whole entry): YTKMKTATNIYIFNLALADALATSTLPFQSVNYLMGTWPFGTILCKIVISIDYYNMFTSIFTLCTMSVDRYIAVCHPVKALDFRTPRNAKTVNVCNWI
Delta-type opioid receptor, sequence (P32300 whole entry): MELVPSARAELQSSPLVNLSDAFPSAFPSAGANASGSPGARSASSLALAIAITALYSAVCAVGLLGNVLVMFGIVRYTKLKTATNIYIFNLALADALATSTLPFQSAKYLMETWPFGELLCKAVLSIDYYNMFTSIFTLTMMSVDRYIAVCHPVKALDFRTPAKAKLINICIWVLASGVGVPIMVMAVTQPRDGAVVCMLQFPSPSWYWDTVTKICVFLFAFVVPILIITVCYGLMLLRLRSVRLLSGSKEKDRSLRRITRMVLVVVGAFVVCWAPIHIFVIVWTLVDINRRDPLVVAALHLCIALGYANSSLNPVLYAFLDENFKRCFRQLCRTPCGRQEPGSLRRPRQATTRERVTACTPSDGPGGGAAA

Compound	Ki [1] [nM]	Ki [2] [nM]	logD [3]	Ki [4] [nM]	Ratio Ki [5]	Ratio Ki [6]
Oc1ccc2c3c1O[C@H]1c4[nH]c5ccccc5c4C[C@@]4(O)[C@@H](C2)N(CC2CC2)CC[C@]314 [NALTRINDOLE]	33.9	14.9	2.41	–	–	–
O=C(O)CN1CCN(CCn2c3c(c4ccccc42)C[C@@]2(O)[C@H]4Cc5ccc(O)c6c5[C@@]2(CCN4CC2CC2)[C@@H]3O6)CCN(CC(=O)O)CCN(CC(=O)O)CC1	1750	2010	–	4.9	357	410
O=C(O)CN1CCN(CCCCCn2c3c(c4ccccc42)C[C@@]2(O)[C@H]4Cc5ccc(O)c6c5[C@@]2(CCN4CC2CC2)[C@@H]3O6)CCN(CC(=O)O)CCN(CC(=O)O)CC1	48.2	26.2	–	0.2	241	131
